# pKd: −log10 of the molar value.
# Legend:
# KIT kinase = KIT kinase (Homo sapiens (Human), UniProt P10721); assay: Competition binding assay (Kd), KIT; conditions: competition binding assay
# Method: In certain embodiments, competition binding assays were performed as described in Fabian et al., Nature Biotechnology 2005, 23, 329-336.
# Competition binding assays used herein were developed, validated and performed as described in Fabian et al., Nature Biotechnology 2005, 23, 329-336. Kinases were produced as fusions to T7 phage (See, Fabian et al. or WO04/015142) or alternatively, the kinases were expressed in HEK-293 cells and subsequently tagged with DNA for PCR detection (See, WO08/005,310). […] The liganded beads were blocked with excess biotin and washed with blocking buffer (SeaBlock (Pierce), 1% BSA, 0.05% Tween 20, 1 mM DTT) to remove unbound ligand and to reduce non-specific binding. […] Test compounds were prepared as 100× stocks in DMSO and diluted into the aqueous environment. Kds were determined using an eleven point threefold serial dilutions. DMSO or control compounds were was added to control assays lacking a test compound. […] The kinase concentration in the eluates was measured by quantitative PCR. […]
# FLT3 kinase = FLT3 kinase (Homo sapiens (Human), UniProt P36888); assay: Competition binding assay (Kd), FLT3; conditions: competition binding assay
# Sequence of FLT3 kinase (P36888 27-993): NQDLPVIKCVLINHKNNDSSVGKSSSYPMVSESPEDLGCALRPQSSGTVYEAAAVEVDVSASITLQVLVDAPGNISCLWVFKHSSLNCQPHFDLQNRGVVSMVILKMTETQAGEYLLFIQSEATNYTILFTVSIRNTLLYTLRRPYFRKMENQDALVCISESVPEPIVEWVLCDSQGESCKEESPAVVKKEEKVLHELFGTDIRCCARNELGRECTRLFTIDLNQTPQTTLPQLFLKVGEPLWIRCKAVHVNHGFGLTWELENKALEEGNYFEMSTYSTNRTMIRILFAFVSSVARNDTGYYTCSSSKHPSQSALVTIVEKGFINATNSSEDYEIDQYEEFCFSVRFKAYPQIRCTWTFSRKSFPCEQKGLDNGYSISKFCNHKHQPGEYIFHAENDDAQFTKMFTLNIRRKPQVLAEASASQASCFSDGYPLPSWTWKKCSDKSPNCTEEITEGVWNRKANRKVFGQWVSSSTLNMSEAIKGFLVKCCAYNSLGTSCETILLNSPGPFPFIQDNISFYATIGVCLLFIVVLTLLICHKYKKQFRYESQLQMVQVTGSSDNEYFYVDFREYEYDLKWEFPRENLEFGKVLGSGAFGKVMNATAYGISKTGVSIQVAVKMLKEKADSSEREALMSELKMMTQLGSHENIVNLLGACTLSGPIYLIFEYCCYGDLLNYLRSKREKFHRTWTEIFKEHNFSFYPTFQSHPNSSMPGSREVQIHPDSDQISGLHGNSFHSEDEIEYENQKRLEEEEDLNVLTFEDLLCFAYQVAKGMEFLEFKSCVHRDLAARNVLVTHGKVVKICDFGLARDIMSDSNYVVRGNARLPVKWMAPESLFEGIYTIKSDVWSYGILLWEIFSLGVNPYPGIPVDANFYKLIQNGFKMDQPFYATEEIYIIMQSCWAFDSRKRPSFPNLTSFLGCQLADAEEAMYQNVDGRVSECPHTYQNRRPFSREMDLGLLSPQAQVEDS
# Sequence of KIT kinase (P10721 26-976): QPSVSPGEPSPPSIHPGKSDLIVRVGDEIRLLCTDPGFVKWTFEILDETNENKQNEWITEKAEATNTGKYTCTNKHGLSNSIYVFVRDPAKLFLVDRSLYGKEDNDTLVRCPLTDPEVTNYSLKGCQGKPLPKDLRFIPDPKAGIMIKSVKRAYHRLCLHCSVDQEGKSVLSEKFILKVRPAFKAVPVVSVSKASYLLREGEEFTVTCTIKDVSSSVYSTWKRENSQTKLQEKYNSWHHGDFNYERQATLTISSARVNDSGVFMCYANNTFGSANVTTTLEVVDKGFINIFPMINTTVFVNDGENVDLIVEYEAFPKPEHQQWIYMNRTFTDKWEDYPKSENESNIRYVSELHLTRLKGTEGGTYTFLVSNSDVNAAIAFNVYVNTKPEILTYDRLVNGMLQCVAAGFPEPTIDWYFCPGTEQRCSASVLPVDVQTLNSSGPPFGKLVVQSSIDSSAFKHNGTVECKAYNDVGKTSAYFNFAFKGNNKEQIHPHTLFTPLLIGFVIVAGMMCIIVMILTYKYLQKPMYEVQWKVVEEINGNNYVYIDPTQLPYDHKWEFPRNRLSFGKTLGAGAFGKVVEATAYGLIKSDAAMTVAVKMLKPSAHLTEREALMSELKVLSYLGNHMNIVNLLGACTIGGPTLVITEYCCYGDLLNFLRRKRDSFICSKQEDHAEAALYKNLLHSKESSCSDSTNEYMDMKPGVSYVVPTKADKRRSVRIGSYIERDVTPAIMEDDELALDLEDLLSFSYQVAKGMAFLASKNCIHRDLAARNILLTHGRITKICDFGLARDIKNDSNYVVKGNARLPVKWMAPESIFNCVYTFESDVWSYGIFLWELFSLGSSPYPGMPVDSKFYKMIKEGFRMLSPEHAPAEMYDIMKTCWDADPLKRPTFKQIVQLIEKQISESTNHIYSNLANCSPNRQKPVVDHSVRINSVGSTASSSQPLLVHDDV
compound,measurement,setting,value
"COc1cc2ncc(-c3ccc(CC(=O)Nc4cc(C(C)(C)C(F)(F)F)on4)c(F)c3)cc2cc1OCCN1CC[C@H](O)[C@@H](F)C1 (stereo in doubt) [Example 87, 2-(2-Fluoro-4-{6-[2-(3-fluoro-4-hydroxy-piperidin-1-yl)-ethoxy]-7-methoxy-quinolin-3-yl}-phenyl)-N-[5-(2,2,2-trifluoro-1,1-dimethyl-ethyl)-isoxazol-3-yl]-acetamide]",pKd,KIT kinase,> 8.30
same,pKd,FLT3 kinase,> 8.30
"Nc1nc2ccccc2nc1-c1ccc(CC(=O)Nc2cc(C3(C(F)(F)F)CC3)on2)cc1 [Example 7, 2-(4-(3-aminoquinoxalin-2-yl)phenyl)-N-(5-(1-(trifluoromethyl)cyclopropyl)isoxazol-3-yl)acetamide]",pKd,KIT kinase,> 8.30
same,pKd,FLT3 kinase,> 8.30
"Cn1ccc2ncc(-c3ccc(CC(=O)Nc4cc(C5(C(F)(F)F)CC5)on4)cc3)nc21 [Example 9, 2-(4-(5-methyl-5H-pyrrolo[2,3-b]pyrazin-3-yl)phenyl)-N-(5-(1-(trifluoromethyl)cyclopropyl)isoxazol-3-yl)acetamide]",pKd,KIT kinase,> 8.30
same,pKd,FLT3 kinase,> 8.30
"O=C(Cc1ccc(-c2cnc3ccsc3c2)cc1)Nc1cc(C2(C(F)(F)F)CC2)on1 [Example 10, 2-(4-(thieno[3,2-b]pyridin-6-yl)phenyl)-N-(5-(1-(trifluoromethyl)cyclopropyl)isoxazol-3-yl)acetamide]",pKd,KIT kinase,> 8.30
same,pKd,FLT3 kinase,> 8.30
"O=C(Cc1ccc(-c2cnc3cccnc3c2)cc1)Nc1cc(C2(C(F)(F)F)CC2)on1 [Example 11, 2-(4-(1,5-naphthyridin-3-yl)phenyl)-N-(5-(1-(trifluoromethyl)cyclopropyl)isoxazol-3-yl)acetamide]",pKd,KIT kinase,> 8.30
same,pKd,FLT3 kinase,> 8.30
"O=C(Cc1ccc(-c2cnc3ccncc3c2)cc1)Nc1cc(C2(C(F)(F)F)CC2)on1 [Example 12, 2-(4-(1,6-naphthyridin-3-yl)phenyl)-N-(5-(1-(trifluoromethyl)cyclopropyl)isoxazol-3-yl)acetamide]",pKd,KIT kinase,> 8.30
same,pKd,FLT3 kinase,> 8.30
"COc1cc(OC)c2cc(-c3ccc(CC(=O)Nc4cc(C5(C(F)(F)F)CC5)on4)cc3)cnc2c1 [Example 13, 2-(4-(5,7-dimethoxyquinolin-3-yl)phenyl)-N-(5-(1-(trifluoromethyl)cyclopropyl)isoxazol-3-yl)acetamide]",pKd,KIT kinase,7.70 to 8.30
same,pKd,FLT3 kinase,> 8.30
"O=C(Cc1ccc(-c2cnc3[nH]cnc3n2)cc1)Nc1cc(C2(C(F)(F)F)CC2)on1 [Example 14, 2-(4-(1H-imidazo[4,5-b]pyrazin-5-yl)phenyl)-N-(5-(1-(trifluoromethyl)cyclopropyl)isoxazol-3-yl)acetamide]",pKd,KIT kinase,> 8.30
same,pKd,FLT3 kinase,> 8.30
"COc1cc2nc(-c3ccc(CC(=O)Nc4cc(C5(C(F)(F)F)CC5)on4)c(F)c3)cnc2cc1OCCN1CCN(C)CC1 [Example 81, 2-(2-fluoro-4-(7-methoxy-6-(2-(4-methylpiperazin-1-yl)ethoxy)quinoxalin-2-yl)phenyl)-N-(5-(1-(trifluoromethyl)cyclopropyl)isoxazol-3-yl)acetamide]",pKd,KIT kinase,> 8.30
same,pKd,FLT3 kinase,> 8.30
"COc1cc2nc(-c3ccc(CC(=O)Nc4cc(C5(C(F)(F)F)CC5)on4)c(F)c3)cnc2cc1OCCN1CCC(F)(F)C1 [Example 82, 2-(4-(6-(2-(3,3-difluoropyrrolidin-1-yl)ethoxy)-7-methoxyquinoxalin-2-yl)-2-fluorophenyl)-N-(5-(1-(trifluoromethyl)cyclopropyl)isoxazol-3-yl)acetamide]",pKd,KIT kinase,> 8.30
same,pKd,FLT3 kinase,> 8.30
"COc1cc2nc(-c3ccc(CC(=O)Nc4cc(C5(C(F)(F)F)CC5)on4)c(F)c3)cnc2cc1Br [Example 83, 2-(4-(6-bromo-7-methoxyquinoxalin-2-yl)-2-fluorophenyl)-N-(5-(1-(trifluoromethyl)cyclopropyl)isoxazol-3-yl)acetamide]",pKd,KIT kinase,> 8.30
same,pKd,FLT3 kinase,> 8.30
"COc1cc2nc(-c3ccc(CC(=O)Nc4cc(C5(C(F)(F)F)CC5)on4)c(F)c3)cnc2cc1CC(O)CO (centres unmarked) [Example 84, 2-(4-(6-(2,3-dihydroxypropyl)-7-methoxyquinoxalin-2-yl)-2-fluorophenyl)-N-(5-(1-(trifluoromethyl)cyclopropyl)isoxazol-3-yl)acetamide]",pKd,KIT kinase,> 8.30
same,pKd,FLT3 kinase,> 8.30
"COc1cc2nc(-c3ccc(CC(=O)Nc4cc(C5(C(F)(F)F)CC5)on4)c(F)c3)cnc2cc1NCCN1CCOCC1 [Example 85, 2-(2-fluoro-4-(7-methoxy-6-((2-morpholinoethyl)amino)quinoxalin-2-yl)phenyl)-N-(5-(1-(trifluoromethyl)cyclopropyl)isoxazol-3-yl)acetamide]",pKd,KIT kinase,> 8.30
same,pKd,FLT3 kinase,> 8.30
"COc1cc2nc(-c3ccc(CC(=O)Nc4cc(C(C)(C)C)on4)c(F)c3)cnc2cc1OCCN1CCOCC1 [Example 92, N-(5-(tert-butyl)isoxazol-3-yl)-2-(2-fluoro-4-(7-methoxy-6-(2-morpholinoethoxy)quinoxalin-2-yl)phenyl)acetamide]",pKd,KIT kinase,> 8.30
"COc1cc2nc(-c3ccc(CC(=O)Nc4cc(C(C)(C)C(F)(F)F)on4)cc3)cnc2cc1OCCN1CCOCC1 [Example 93, 2-(4-(7-methoxy-6-(2-morpholinoethoxy)quinoxalin-2-yl)phenyl)-N-(5-(1,1,1-trifluoro-2-methylpropan-2-yl)isoxazol-3-yl)acetamide]",pKd,KIT kinase,> 8.30
same,pKd,FLT3 kinase,> 8.30
"COc1cc2nc(-c3ccc(CC(=O)Nc4cc(C5(C(F)(F)F)CC5)on4)c(F)c3)cnc2cc1OCCN1CCOCC1(C)C [Example 96, 2-(4-(6-(2-(3,3-dimethylmorpholino)ethoxy)-7-methoxyquinoxalin-2-yl)-2-fluorophenyl)-N-(5-(1-(trifluoromethyl)cyclopropyl)isoxazol-3-yl)acetamide]",pKd,KIT kinase,> 8.30
same,pKd,FLT3 kinase,> 8.30
"CCN1CCN(CCOc2cc3ncc(-c4ccc(CC(=O)Nc5cc(C6(C(F)(F)F)CC6)on5)c(F)c4)nc3cc2OC)CC1 [Example 105, 2-[4-[6-[2-(4-ethylpiperazin-1-yl)ethoxy]-7-methoxy-quinoxalin-2-yl]-2-fluoro-phenyl]-N-[5-[1-(trifluoromethyl)cyclo-propyl]isoxazol-3-yl]acetamide]",pKd,KIT kinase,> 8.30
same,pKd,FLT3 kinase,> 8.30
"COc1cc2nc(-c3ccc(CC(=O)Nc4cc(C(C)(C)C(F)(F)F)on4)c(F)c3)cnc2cc1OCCN1CCOCC1 [Example 171, 2-[2-fluoro-4-[7-methoxy-6-(2-morpholino-ethoxy)quinoxalin-2-yl]phenyl]-N-[5-(2,2,2-trifluoro-1,1-dimethyl-ethyl)isoxazol-3-yl]acetamide]",pKd,KIT kinase,> 8.30
"COc1cc2ncc(-c3ccc(CC(=O)Nc4cc(C5(C(F)(F)F)CC5)nn4C)c(F)c3)nc2cc1OC [Example 172, 2-[4-(6,7-dimethoxyquinoxalin-2-yl)-2-fluoro-phenyl]-N-[2-methyl-5-[1-(trifluoro-methyl)cyclopropyl]pyrazol-3-yl]acetamide]",pKd,KIT kinase,> 8.30
same,pKd,FLT3 kinase,> 8.30
"COc1cc2ncc(-c3ccc(CC(=O)Nc4cc(C5(C(F)(F)F)CC5)nn4C(C)(C)C)c(F)c3)nc2cc1OC [Example 173, N-[2-tert-butyl-5-[1-(trifluoromethyl)cyclo-propyl]pyrazol-3-yl]-2-[4-(6,7-dimethoxy-quinoxalin-2-yl)-2-fluoro-phenyl]acetamide]",pKd,KIT kinase,< 7.30
same,pKd,FLT3 kinase,7.70 to 8.30

# Reference: patent publication US9725465B2, “Biaryl acetamide compounds and methods of use thereof” (Ambit Biosciences Corporation, priority 2013, dated 2017)
